# Measured values taken from article PMC3961306, “Comparison of the Cancer Gene Targeting and Biochemical Selectivities of All Targeted Kinase Inhibitors Approved for Clinical Use” (PLoS ONE, 2014).
# Legend:
# Assay in all cases: Kinase profiling in a biochemical assay panel (mobility shift assays and ELISA), %-inhibition at 1 μM; selectivity entropy
# [1] = molecular target: panel of more than 300 wild-type and mutant kinases (313 kinase panel) (Homo sapiens, UniProt Q06187); details: kinase BTK; 1 μM compound
# [2] = molecular target: panel of more than 300 wild-type and mutant kinases (313 kinase panel) (Homo sapiens, UniProt Q8N568)
# [3] = molecular target: panel of more than 300 wild-type and mutant kinases (313 kinase panel) (Homo sapiens, UniProt Q9NQU5)
# [4] = molecular target: panel of more than 300 wild-type and mutant kinases (313 kinase panel) (Homo sapiens, UniProt Q9UM73)
# [5] = molecular target: panel of more than 300 wild-type and mutant kinases (313 kinase panel) (Homo sapiens, UniProt O00311)
# [6] = molecular target: panel of more than 300 wild-type and mutant kinases (313 kinase panel) (Homo sapiens, UniProt P51957)
# [7] = molecular target: T1, panel of more than 300 wild-type and mutant kinases (313 kinase panel) (Homo sapiens, UniProt Q96L34)
# T1 sequence (Q96L34 1-752): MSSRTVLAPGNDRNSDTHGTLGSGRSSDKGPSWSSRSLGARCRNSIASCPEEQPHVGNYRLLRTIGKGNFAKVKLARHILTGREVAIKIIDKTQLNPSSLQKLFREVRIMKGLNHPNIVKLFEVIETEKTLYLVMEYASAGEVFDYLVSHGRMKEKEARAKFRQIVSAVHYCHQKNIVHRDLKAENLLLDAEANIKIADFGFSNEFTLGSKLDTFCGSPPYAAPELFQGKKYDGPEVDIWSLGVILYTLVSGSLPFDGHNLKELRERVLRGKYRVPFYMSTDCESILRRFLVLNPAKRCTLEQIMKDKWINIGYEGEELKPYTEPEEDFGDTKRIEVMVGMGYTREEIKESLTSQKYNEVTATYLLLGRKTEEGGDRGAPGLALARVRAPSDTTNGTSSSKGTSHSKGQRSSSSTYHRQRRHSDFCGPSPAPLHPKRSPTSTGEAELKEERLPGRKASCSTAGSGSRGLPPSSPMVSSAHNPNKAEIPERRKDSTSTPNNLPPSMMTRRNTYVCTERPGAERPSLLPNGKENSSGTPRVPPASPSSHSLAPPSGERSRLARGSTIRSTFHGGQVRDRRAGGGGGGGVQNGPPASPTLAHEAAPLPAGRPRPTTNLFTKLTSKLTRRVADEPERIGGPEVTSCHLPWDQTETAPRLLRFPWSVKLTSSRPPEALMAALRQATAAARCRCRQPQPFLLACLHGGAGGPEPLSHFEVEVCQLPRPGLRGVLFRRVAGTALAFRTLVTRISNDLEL
# [8] = molecular target: panel of more than 300 wild-type and mutant kinases (313 kinase panel) (Homo sapiens, UniProt P49137)
# [9] = molecular target: T2, panel of more than 300 wild-type and mutant kinases (313 kinase panel) (Homo sapiens, UniProt Q96PY6)
# T2 sequence (Q96PY6 1-1258): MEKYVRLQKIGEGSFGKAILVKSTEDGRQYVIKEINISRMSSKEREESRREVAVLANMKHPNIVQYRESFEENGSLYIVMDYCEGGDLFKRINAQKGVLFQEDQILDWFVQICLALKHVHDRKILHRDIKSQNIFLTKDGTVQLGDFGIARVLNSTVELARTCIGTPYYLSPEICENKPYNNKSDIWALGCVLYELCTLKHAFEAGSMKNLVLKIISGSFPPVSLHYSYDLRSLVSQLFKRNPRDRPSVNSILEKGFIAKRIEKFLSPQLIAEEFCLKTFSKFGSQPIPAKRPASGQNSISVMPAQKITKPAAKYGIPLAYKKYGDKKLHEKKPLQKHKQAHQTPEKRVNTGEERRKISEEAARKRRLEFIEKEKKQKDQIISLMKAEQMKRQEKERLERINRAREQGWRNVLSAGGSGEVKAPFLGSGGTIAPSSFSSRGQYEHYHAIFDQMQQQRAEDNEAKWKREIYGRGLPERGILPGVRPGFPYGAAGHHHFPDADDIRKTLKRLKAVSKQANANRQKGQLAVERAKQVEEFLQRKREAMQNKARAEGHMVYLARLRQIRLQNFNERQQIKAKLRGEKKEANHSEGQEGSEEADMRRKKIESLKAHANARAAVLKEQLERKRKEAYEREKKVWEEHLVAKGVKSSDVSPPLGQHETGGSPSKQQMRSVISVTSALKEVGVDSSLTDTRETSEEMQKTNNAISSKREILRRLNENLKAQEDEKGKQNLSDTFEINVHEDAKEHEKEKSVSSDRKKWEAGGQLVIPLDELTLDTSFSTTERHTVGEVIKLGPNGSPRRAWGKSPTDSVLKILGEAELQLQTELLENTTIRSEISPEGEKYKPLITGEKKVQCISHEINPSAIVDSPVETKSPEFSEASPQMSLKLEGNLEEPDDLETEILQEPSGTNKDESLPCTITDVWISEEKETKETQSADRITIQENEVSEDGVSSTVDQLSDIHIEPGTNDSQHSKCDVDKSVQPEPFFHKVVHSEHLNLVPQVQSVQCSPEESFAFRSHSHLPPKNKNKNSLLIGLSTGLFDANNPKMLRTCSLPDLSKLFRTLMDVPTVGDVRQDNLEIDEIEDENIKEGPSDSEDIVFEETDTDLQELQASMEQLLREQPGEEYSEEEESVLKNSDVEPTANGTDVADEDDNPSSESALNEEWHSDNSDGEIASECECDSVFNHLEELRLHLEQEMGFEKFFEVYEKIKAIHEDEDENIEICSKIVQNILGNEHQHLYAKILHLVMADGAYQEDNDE
# [10] = kinase DCAMKL2, compound at 1 μM
# [11] = kinase MAPKAPK2, compound at 1 μM
# panel of more than 300 wild-type and mutant kinases (313 kinase panel) (Homo sapiens, UniProt P51957), sequence (P51957 whole entry, change not shown): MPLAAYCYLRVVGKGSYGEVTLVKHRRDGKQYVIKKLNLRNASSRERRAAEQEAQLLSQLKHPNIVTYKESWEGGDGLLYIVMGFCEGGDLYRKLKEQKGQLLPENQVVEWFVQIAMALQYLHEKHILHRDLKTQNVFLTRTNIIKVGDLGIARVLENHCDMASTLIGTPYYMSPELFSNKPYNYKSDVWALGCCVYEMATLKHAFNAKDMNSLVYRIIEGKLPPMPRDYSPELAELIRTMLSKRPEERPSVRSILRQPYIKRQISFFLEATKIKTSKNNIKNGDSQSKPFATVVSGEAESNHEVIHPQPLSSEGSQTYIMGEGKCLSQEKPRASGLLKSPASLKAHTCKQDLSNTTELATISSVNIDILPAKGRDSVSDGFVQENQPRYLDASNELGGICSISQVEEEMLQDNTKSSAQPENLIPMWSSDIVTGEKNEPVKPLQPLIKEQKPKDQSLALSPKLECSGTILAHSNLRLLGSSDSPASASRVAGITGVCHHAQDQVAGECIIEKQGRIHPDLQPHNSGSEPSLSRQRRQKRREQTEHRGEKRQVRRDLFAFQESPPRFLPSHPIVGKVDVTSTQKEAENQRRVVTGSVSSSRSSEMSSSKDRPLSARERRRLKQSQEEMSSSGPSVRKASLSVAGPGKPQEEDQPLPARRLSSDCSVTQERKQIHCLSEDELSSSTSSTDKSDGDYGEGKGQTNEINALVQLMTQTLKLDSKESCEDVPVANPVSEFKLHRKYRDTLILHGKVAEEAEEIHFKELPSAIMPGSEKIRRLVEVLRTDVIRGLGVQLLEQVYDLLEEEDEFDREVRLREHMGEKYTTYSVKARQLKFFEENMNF
# panel of more than 300 wild-type and mutant kinases (313 kinase panel) (Homo sapiens, UniProt P49137), sequence (P49137 whole entry, change not shown): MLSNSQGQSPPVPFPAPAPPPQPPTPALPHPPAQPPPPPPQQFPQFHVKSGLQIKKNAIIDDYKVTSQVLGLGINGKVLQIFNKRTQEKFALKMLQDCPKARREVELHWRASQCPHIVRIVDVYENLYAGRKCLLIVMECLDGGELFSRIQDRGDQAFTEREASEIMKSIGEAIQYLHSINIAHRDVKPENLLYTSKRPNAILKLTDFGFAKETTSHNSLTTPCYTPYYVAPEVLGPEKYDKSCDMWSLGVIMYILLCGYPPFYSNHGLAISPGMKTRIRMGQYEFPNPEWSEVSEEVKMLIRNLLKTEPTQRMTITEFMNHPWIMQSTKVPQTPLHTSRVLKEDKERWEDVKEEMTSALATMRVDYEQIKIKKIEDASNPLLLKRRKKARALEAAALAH
Compound,"%-inhibition, BTK [1] [%]","%-inhibition of DCAMKL2 [2, 10] [%]","%-inhibition of PAK6 ([3]; kinase PAK6, 1 μM) [%]","%-inhibition, ALK ([4]; kinase ALK, 1 μM compound) [%]","%-inhibition, CDC7/ASK ([5]; kinase CDC7/ASK, 1 μM compound) [%]","%-inhibition of NEK4 ([6]; kinase NEK4, 1 μM) [%]","%-inhibition of MARK4 ([7]; kinase MARK4, compound at 1 μM) [%]","%-inhibition of MAPKAPK2 [8, 11] [%]","%-inhibition of NEK1 ([9]; kinase NEK1, 1 μM) [%]",%-inhibition of MARK4 ([7]; 1 µM) [%],%-inhibition of DCAMKL2 ([2]; 1 µM) [%],%-inhibition of MAPKAPK2 ([8]; 1 µM) [%],%-inhibition of NEK1 ([9]; 1 µM) [%],%-inhibition of PAK6 ([3]; 1 µM) [%],"%-inhibition, ALK ([4]; 1 µM) [%]","%-inhibition, CDC7/ASK ([5]; 1 µM) [%]",%-inhibition of NEK4 ([6]; 1 µM) [%]
COc1cc(Nc2c(C#N)cnc3cc(OCCCN4CCN(C)CC4)c(OC)cc23)c(Cl)cc1Cl [bosutinib],97,-2.32,-0.35,71,-5.36,84,–,–,–,–,–,–,–,–,–,–,–
COc1cc2nccc(Oc3ccc(NC(=O)C4(C(=O)Nc5ccc(F)cc5)CC4)cc3)c2cc1OC [cabozantinib],93,-2.62,-4,49,-3.4,16,-9,-17,-4.23,–,–,–,–,–,–,–,–
C[C@@H](Oc1cc(-c2cnn(C3CCNCC3)c2)cnc1N)c1c(Cl)ccc(F)c1Cl [crizotinib],–,49,3,–,–,4.57,51,-17,2.24,–,–,–,–,–,–,–,–
CC(C)(C)c1nc(-c2cccc(NS(=O)(=O)c3c(F)cccc3F)c2F)c(-c2ccnc(N)n2)s1 [dabrafenib],60,19,9,–,-6,4,-27,–,24,–,–,–,–,–,–,–,–
Cc1nc(Nc2ncc(C(=O)Nc3c(C)cccc3Cl)s2)cc(N2CCN(CCO)CC2)n1 [dasatinib],–,2,–,–,3,1.17,–,–,–,–,–,–,–,–,–,–,–
C#Cc1cccc(Nc2ncnc3cc(OCCOC)c(OCCOC)cc23)c1 [erlotinib],–,–,–,–,–,–,–,–,–,14,5,4.42,5,5,35,0.905,0.778
CO[C@H]1C[C@@H]2CC[C@@H](C)[C@@](O)(O2)C(=O)C(=O)N2CCCC[C@H]2C(=O)O[C@H]([C@H](C)C[C@@H]2CC[C@@H](OCCO)[C@H](OC)C2)CC(=O)[C@H](C)/C=C(\C)[C@@H](O)[C@@H](OC)C(=O)[C@H](C)C[C@H](C)/C=C/C=C/C=C/1C [everolimus],1.16,-5.64,-1.22,1.68,-6,0.832,-27,-18,-7,–,–,–,–,–,–,–,–
O=S(=O)(c1cccc2cnccc12)N1CCCNCC1 [fasudil],1.51,-2,8,-4.38,-7,-1.87,-21,-13,-6.36,–,–,–,–,–,–,–,–
CS(=O)(=O)CCNCc1ccc(-c2ccc3ncnc(Nc4ccc(OCc5cccc(F)c5)c(Cl)c4)c3c2)o1 [lapatinib],–,7,0.144,1.72,3,0.649,10,–,–,–,–,–,1.5,–,–,–,–
Cc1ccc(C(=O)Nc2ccc(CN3CCN(C)CC3)c(C(F)(F)F)c2)cc1C#Cc1cnc2cccnn12 [ponatinib],95,-3.72,-3,9,-7.45,98,-2.58,–,78,–,–,–,–,–,–,–,–
CCN(CC)CCNC(=O)c1c(C)[nH]c(/C=C2\C(=O)Nc3ccc(F)cc32)c1C [sunitinib],–,–,–,–,–,–,92,–,–,–,–,–,–,–,–,–,–
COc1cc2c(Nc3ccc(Br)cc3F)ncnc2cc1OCC1CCN(C)CC1 [vandetanib],–,-5,-5.42,–,-6.41,-6.51,2.39,-20,-8,–,–,–,–,–,–,–,–
